What was measured:
[1] = target: Wee1-like protein kinase 2 (Homo sapiens) (UniProt P0C1S8); details: Compound concentration 1000.0 nM
[2] = target: T1, Alpha-2C adrenergic receptor (Homo sapiens) (UniProt P18825); details: Compound concentration 10.0 uM
T1 sequence (whole entry): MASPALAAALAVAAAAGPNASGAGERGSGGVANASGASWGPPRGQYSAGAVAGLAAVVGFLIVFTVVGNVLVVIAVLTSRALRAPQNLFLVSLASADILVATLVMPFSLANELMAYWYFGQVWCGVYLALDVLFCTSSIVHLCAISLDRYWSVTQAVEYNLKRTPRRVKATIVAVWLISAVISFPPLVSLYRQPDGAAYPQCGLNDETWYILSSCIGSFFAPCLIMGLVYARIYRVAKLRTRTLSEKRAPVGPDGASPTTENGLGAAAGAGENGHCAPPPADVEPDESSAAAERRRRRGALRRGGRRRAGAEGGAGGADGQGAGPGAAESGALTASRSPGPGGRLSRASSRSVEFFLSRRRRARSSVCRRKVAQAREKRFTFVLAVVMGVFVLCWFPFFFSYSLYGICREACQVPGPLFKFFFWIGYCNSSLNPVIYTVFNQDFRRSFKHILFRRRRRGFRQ

[3] = target: Ephrin type-A receptor 8 (Homo sapiens) (UniProt P29322); details: Compound concentration 1000.0 nM
[4] = target: Serine/threonine-protein kinase 38 (Homo sapiens) (UniProt Q15208); details: Compound concentration 1000.0 nM
[5] = target: Fibroblast growth factor receptor 3 (Homo sapiens) (UniProt P22607); details: Compound concentration 1000.0 nM
[6] = target: Tyrosine-protein kinase Srms (Homo sapiens) (UniProt Q9H3Y6); details: Compound concentration 1000.0 nM
[7] = target: Serine/threonine-protein kinase SIK1 (Homo sapiens) (UniProt P57059); details: Compound concentration 1000.0 nM
[8] = target: Dual specificity mitogen-activated protein kinase kinase 5 (Homo sapiens) (UniProt Q13163); details: Compound concentration 1000.0 nM
[9] = target: Mitogen-activated protein kinase 9 (Homo sapiens) (UniProt P45984); details: Compound concentration 1000.0 nM
[10] = target: Beta-adrenergic receptor kinase 1 (Homo sapiens) (UniProt P25098); details: Compound concentration 1000.0 nM
[11] = target: 5-hydroxytryptamine receptor 1B (Homo sapiens) (UniProt P28222); details: Compound concentration 10.0 uM
[12] = target: Alpha-1B adrenergic receptor (Homo sapiens) (UniProt P35368); details: Compound concentration 10.0 uM
[13] = target: Tyrosine-protein kinase Fyn (Homo sapiens) (UniProt P06241); details: Compound concentration 1000.0 nM
[14] = target: TGF-beta receptor type-2 (Homo sapiens) (UniProt P37173); details: Compound concentration 1000.0 nM
[15] = target: T2, Muscarinic acetylcholine receptor M1 (Homo sapiens) (UniProt P11229); details: Compound concentration 10.0 uM
T2 sequence (whole entry): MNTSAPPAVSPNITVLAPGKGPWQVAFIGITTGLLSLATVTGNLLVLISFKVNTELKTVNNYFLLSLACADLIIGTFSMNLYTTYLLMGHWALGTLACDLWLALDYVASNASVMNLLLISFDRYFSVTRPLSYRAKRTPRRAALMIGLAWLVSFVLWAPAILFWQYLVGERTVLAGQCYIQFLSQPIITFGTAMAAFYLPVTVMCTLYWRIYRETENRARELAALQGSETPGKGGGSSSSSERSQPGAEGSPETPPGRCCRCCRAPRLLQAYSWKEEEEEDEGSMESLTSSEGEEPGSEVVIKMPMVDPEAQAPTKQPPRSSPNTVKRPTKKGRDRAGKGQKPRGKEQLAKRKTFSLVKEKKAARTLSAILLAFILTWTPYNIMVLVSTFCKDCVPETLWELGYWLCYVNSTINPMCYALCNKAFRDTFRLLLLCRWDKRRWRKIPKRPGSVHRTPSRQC

[16] = target: Serine/threonine-protein kinase Nek10 (Homo sapiens) (UniProt Q6ZWH5); details: Compound concentration 1000.0 nM
[17] = target: Myosin light chain kinase (Homo sapiens) (UniProt Q32MK0); details: Compound concentration 1000.0 nM
[18] = test system: Epidermal growth factor receptor (Homo sapiens), P00533 [L861Q]; details: Compound concentration 1000.0 nM
[19] = target: Serine/threonine-protein kinase B-raf (Homo sapiens) (UniProt P15056); details: Compound concentration 1000.0 nM
[20] = target: Aurora kinase B (Homo sapiens) (UniProt Q96GD4); details: Compound concentration 1000.0 nM
[21] = target: Dual specificity protein kinase CLK1 (Homo sapiens) (UniProt P49759); details: Compound concentration 1000.0 nM
[22] = target: Activin receptor type-2A (Homo sapiens) (UniProt P27037); details: Compound concentration 1000.0 nM
[23] = target: Homeodomain-interacting protein kinase 3 (Homo sapiens) (UniProt Q9H422); details: Compound concentration 1000.0 nM
[24] = target: Serine/threonine-protein kinase 16 (Homo sapiens) (UniProt O75716); details: Compound concentration 1000.0 nM
[25] = target: Tyrosine-protein kinase Lck (Homo sapiens) (UniProt P06239); details: Compound concentration 1000.0 nM
[26] = target: Angiopoietin-1 receptor (Homo sapiens) (UniProt Q02763); details: Compound concentration 1000.0 nM
[27] = target: Proto-oncogene tyrosine-protein kinase ROS (Homo sapiens) (UniProt P08922); details: Compound concentration 1000.0 nM
[28] = target: Calcium/calmodulin-dependent protein kinase type II subunit delta (Homo sapiens) (UniProt Q13557); details: Compound concentration 1000.0 nM
[29] = target: Myosin light chain kinase family member 4 (Homo sapiens) (UniProt Q86YV6); details: Compound concentration 1000.0 nM
[30] = target: Histamine H4 receptor (Homo sapiens) (UniProt Q9H3N8); details: Compound concentration 10.0 uM
[31] = target: Mitogen-activated protein kinase kinase kinase 7 (Homo sapiens) (UniProt O43318); details: Compound concentration 1000.0 nM
[32] = target: Aurora kinase A (Homo sapiens) (UniProt O14965); details: Compound concentration 1000.0 nM
[33] = target: Mitogen-activated protein kinase kinase kinase 14 (Homo sapiens) (UniProt Q99558); details: Compound concentration 1000.0 nM
[34] = target: Serine/threonine-protein kinase D2 (Homo sapiens) (UniProt Q9BZL6); details: Compound concentration 1000.0 nM

Sequence of TGF-beta receptor type-2 (Homo sapiens) (P37173 whole entry): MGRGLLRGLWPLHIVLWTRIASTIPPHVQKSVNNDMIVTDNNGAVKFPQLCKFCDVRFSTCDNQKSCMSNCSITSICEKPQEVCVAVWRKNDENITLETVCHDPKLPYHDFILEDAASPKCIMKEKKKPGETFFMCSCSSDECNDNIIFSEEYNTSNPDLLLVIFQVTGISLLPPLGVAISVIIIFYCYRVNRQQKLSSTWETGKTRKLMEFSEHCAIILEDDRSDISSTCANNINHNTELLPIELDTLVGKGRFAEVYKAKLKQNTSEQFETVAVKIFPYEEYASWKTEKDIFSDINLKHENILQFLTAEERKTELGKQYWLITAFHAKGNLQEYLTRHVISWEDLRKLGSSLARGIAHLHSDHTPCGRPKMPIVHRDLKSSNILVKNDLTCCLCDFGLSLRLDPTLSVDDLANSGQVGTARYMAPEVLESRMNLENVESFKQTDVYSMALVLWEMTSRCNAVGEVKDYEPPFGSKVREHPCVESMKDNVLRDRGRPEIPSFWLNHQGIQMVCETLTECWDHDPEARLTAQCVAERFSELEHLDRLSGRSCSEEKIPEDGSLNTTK
Sequence of Beta-adrenergic receptor kinase 1 (Homo sapiens) (P25098 whole entry): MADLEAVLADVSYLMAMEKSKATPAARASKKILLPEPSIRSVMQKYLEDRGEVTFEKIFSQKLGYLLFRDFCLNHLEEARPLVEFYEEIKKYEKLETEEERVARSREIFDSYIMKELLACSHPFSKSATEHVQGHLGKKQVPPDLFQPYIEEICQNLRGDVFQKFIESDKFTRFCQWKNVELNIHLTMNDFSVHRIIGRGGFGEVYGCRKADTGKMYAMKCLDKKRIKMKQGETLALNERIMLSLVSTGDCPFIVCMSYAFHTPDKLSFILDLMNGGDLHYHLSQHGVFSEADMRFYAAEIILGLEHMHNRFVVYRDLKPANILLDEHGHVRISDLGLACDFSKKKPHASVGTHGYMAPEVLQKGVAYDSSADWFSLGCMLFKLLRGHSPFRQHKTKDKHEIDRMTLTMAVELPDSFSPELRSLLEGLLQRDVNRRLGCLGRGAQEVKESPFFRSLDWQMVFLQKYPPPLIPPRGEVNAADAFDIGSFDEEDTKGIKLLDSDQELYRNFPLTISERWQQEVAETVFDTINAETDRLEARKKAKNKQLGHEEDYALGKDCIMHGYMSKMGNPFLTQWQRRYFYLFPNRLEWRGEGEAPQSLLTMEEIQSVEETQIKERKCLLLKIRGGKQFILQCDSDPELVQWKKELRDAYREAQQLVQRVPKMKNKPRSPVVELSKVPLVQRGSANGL
Sequence of Alpha-1B adrenergic receptor (Homo sapiens) (P35368 whole entry): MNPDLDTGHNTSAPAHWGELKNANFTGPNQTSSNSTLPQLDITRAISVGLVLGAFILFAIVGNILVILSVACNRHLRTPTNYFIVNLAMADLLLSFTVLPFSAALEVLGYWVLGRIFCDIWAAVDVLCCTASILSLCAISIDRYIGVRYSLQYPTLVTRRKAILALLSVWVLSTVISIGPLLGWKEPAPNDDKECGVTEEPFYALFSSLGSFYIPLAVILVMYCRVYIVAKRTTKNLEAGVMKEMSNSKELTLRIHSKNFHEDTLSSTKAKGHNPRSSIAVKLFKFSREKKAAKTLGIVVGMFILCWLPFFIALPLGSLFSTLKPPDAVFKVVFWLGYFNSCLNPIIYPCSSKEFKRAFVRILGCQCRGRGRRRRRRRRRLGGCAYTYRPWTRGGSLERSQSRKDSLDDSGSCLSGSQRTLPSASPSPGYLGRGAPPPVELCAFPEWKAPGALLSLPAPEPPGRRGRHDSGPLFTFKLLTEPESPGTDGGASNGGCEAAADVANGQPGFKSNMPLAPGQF
Sequence of Dual specificity protein kinase CLK1 (Homo sapiens) (P49759 whole entry, looked up): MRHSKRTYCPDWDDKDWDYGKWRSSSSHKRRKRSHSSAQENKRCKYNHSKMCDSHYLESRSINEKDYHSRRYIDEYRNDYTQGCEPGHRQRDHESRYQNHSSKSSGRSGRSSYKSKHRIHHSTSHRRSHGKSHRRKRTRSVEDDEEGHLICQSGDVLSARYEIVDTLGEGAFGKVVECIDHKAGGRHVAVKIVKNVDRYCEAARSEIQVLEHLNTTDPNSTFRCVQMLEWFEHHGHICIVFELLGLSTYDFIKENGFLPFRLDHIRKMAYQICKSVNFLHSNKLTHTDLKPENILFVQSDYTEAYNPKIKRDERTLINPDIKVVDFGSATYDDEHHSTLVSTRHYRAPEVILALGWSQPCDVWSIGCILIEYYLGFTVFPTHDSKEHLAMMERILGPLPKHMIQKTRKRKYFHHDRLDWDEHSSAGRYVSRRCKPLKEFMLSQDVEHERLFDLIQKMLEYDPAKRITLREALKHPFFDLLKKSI
Sequence of Homeodomain-interacting protein kinase 3 (Homo sapiens) (Q9H422 whole entry, looked up): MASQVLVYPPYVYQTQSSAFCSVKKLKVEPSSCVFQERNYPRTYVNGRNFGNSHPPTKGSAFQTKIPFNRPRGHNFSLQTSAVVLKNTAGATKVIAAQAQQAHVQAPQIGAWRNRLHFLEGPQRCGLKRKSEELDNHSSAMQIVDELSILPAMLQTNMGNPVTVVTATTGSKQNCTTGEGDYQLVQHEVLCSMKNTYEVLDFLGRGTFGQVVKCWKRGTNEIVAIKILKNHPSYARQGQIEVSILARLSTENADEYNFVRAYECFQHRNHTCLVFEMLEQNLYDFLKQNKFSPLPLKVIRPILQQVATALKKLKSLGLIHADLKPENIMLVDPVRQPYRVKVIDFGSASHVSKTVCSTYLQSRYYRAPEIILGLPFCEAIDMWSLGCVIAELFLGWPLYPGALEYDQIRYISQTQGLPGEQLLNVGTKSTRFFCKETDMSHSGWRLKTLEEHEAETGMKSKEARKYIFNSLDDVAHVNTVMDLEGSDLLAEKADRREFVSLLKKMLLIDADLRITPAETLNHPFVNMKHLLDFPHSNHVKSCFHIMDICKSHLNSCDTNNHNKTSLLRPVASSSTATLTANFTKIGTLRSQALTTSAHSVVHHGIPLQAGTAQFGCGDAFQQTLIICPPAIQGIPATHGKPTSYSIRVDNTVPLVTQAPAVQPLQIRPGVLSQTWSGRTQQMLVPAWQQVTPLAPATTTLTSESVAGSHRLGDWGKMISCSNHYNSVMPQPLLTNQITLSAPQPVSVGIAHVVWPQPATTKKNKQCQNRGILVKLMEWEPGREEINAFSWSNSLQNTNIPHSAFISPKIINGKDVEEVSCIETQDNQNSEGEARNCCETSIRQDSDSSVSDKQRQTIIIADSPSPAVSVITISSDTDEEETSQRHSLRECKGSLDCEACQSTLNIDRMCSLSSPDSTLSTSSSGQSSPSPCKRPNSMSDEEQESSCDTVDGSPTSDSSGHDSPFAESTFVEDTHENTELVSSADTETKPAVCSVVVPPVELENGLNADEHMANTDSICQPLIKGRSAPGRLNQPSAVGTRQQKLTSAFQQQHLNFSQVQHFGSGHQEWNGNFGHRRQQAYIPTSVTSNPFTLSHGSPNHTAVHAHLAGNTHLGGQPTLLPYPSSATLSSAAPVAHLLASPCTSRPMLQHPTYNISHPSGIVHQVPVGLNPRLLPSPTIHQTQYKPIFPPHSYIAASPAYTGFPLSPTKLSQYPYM
Sequence of Mitogen-activated protein kinase kinase kinase 14 (Homo sapiens) (Q99558 whole entry, looked up): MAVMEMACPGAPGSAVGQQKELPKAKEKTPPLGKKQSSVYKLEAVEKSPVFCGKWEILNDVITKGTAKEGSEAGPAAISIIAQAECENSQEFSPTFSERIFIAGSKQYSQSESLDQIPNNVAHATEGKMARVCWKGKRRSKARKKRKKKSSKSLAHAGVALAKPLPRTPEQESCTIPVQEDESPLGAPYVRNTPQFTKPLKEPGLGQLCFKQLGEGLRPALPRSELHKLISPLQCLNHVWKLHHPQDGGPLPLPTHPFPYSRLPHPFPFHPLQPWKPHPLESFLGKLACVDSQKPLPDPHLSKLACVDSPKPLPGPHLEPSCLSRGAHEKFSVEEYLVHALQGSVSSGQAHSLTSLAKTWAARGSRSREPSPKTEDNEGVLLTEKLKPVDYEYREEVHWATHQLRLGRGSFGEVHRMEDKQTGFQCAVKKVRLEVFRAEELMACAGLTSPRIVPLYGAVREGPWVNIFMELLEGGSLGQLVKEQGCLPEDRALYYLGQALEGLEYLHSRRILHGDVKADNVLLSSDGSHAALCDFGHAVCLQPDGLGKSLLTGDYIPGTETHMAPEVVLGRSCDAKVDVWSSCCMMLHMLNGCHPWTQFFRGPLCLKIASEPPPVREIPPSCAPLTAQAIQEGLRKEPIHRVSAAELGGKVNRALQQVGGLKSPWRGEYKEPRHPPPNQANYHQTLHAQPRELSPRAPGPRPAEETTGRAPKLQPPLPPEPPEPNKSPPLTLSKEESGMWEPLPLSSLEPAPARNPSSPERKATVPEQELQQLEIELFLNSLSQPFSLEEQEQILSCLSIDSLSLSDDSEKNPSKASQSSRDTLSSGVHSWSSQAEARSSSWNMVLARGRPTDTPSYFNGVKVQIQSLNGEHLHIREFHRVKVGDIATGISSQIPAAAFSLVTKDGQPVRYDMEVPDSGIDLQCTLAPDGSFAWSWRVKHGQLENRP
Sequence of Aurora kinase B (Homo sapiens) (Q96GD4 whole entry): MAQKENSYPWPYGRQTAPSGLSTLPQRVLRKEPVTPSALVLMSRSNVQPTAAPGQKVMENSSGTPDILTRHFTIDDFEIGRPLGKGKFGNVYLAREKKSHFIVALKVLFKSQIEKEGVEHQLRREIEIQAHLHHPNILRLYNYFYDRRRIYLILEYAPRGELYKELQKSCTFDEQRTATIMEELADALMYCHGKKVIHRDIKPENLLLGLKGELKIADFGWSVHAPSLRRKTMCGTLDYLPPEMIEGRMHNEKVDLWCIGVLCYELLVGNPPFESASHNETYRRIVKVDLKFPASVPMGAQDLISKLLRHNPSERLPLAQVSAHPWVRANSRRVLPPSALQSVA

O=C(NCc1ncc(C(F)(F)F)cc1Cl)c1ccc2c(c1)C1(CCS(=O)(=O)CC1)[C@@H](C1CC1)N2S(=O)(=O)c1ccc(F)cc1 [BAY-786]
inactive: residual activity [1] 100% | inhibition [2] 15.7% | residual activity [3] 100% | residual activity [4] 84% | residual activity [5] 100% | residual activity [6] 60% | residual activity [7] 89% | residual activity [8] 90% | residual activity [9] 82% | residual activity [10] 80% | inhibition [11] -2.74% | inhibition [12] -8.58% | residual activity [13] 70% | residual activity [14] 71% | inhibition [15] -3.7% | residual activity [16] 83% | residual activity [17] 76% | residual activity [18] 76% | residual activity [19] 96% | residual activity [20] 66% | residual activity [21] 100% | residual activity [22] 100% | residual activity [23] 81% | residual activity [24] 99% | residual activity [25] 100% | residual activity [26] 96% | residual activity [27] 100% | residual activity [28] 100% | residual activity [29] 95% | inhibition [30] -6.68% | residual activity [31] 63% | residual activity [32] 81% | residual activity [33] 71% | residual activity [34] 90%

O=C(NCc1ncc(C(F)(F)F)cc1Cl)c1ccc2c(c1)C1(CCS(=O)(=O)CC1)[C@H](C1CC1)N2S(=O)(=O)c1ccc(F)cc1 [BAY-784]
inactive: residual activity [1] 100% | inhibition [2] 12.8% | residual activity [3] 97% | residual activity [4] 92% | residual activity [5] 100% | residual activity [6] 71% | residual activity [7] 100% | residual activity [8] 69% | residual activity [9] 76% | residual activity [10] 56% | inhibition [11] -6.19% | inhibition [12] -4.46% | residual activity [13] 100% | residual activity [14] 100% | inhibition [15] -2.96% | residual activity [16] 94% | residual activity [17] 79% | residual activity [18] 84% | residual activity [19] 91% | residual activity [20] 66% | residual activity [21] 100% | residual activity [22] 86% | residual activity [23] 82% | residual activity [24] 88% | residual activity [25] 100% | residual activity [26] 100% | residual activity [27] 100% | residual activity [28] 100% | residual activity [29] 100% | inhibition [30] -9.53% | residual activity [31] 80% | residual activity [32] 97% | residual activity [33] 100% | residual activity [34] 98%

Source: ChEMBL document CHEMBL4507266, “Data for DCP probe BAY-784” (2021)
